{"source": "patent US20220096592A1", "about": "“PIC1 VARIANTS WITH IMPROVED SOLUBILITY AND METHODS OF USING THE SAME” (priority 2019, published 2022)", "key": {"[1]": {"tested_on": "transfused human platelets", "assay": "human platelets transfused into Wistar rats (platelet refractoriness model)", "format": "in vivo, Wistar rat", "description": "Male Wistar rats approximately 16 weeks old and 250 grams in weight were purchased (Hilltop Scottdale, Pa.) with indwelling intra jugular catheters in place. Rats were sedated with ketamine and acepromazine throughout the course of the experiment with monitoring of vital signs. PIC1 infusions were performed 30 seconds prior to transfusion with PKH26 stained human platelets. Blood samples were collected into K2EDTA microtainer tubes (BD, Franklin Lakes, N.J., USA) from the animals prior to transfusion and then at 0.5, 2, 5, 20, 60 and 120 min after transfusion. Upon completion of the final blood draw, the animals were euthanized using Fatal Plus (Vortech Pharmaceuticals, Dearborn, Mich., USA). A necropsy was completed after euthanasia to collect organs for histopathology.\nFlow cytometry was performed using a FACSCalibur flow cytometer (Becton Dickinson, Franklin Lakes, N.J., USA) with DXP 8 Color 488/637/407 upgrade (Cytek Development, Freemont, Calif., USA). The data was acquired using Cytek FlowJo CE version 7.5.110.7. Prior to analysis on the flow cytometry machine, whole rat blood was spun at 500×g for 5 min. The plasma platelet layer was removed and then diluted 1:10 with PBS. Approximately 20,000 events selected for platelet size were run on the […]. Data was analyzed using FlowJo V10.4.2 (FlowJo LLC, Ashland, Oreg., USA).\nThe unstained native rat platelets are to the left of the vertical line, and the stained transfused platelets are to the right. […] This difference is not noticeable at two minutes.\nTotal platelet counts for rats transfused with unstained platelets treated with PIC1 or saline control (as shown in FIG. 12B) were evaluated in order to evaluate if similar trends could be determined for unstained platelets. Platelet counts were measured for each blood sample by Antech Diagnostics (Chesapeake, Va.). Decreases in platelet counts were calculated for each time point compared with the maximal platelet count immediately after transfusion at 30 seconds."}, "[2]": {"tested_on": "Wistar rat sera complement-mediated killing of human platelets", "assay": "viability of human platelets in Wistar rat sera (Presto Blue)", "format": "cell-based", "details": "increasing concentrations, vs platelets in normal rat sera, P<0.017, FIG. 7C", "description": "For experiments using rat sera, purified platelets were incubated with 5% Wistar rat sera at different time points (5 min, 20 min and 60 min) in a 37° C. bath. Thereafter, GVBS^−− was added to the mixture and this was spun at 500 g for 5 min at 22° C. After resuspending with 250 ul of PBS, PrestoBlue was added to the cells at a 1:10 dilution and incubated in a 37° C. water bath for 30 min. The cells were then plated and read on a microplate reader at 530 nm. With the addition of PIC1 to sera, there was a preincubation time of 5 minutes before addition of platelets.\nIn order to evaluate the extent to which rat sera killing of human platelets is mediated by the classical pathway of complement, we utilized PA-dPEG24."}, "[3]": {"tested_on": "C3 activation on the platelet surface", "assay": "iC3b ELISA of antibody-sensitized human platelets in normal human serum", "format": "cell-based", "description": "(§1) For experiments sensitizing platelets with human anti-platelet antibody, purified platelets were treated with 4% ITP sera for 15 minutes at 30° C. before adding 2% normal human complement sufficient sera and incubating for 30 minutes at 37° C. For samples containing PIC1, sera and PIC1 were pre-incubated for 5 minutes before combining with sensitized platelets. Samples were then spun and supernatant was removed for C5a analysis by ELISA. A C5a ELISA kit (R&D Systems) was used per manufacturer's instructions. The cells were washed once with GVBS^−− and once with water to lyse the platelets. The remaining cell pellet was treated with 25 mM methylamine for 1 hour at 37° C., spun, and the supernatant was analyzed for iC3b by ELISA. The ELISA for iC3b was performed as previously described, utilizing a goat anti-human C3 antibody (Complement Technology, Tyler, Tex.) for capture, a mouse anti-human iC3b antibody (Quidel, San Diego, Calif.) for probing, and a goat anti-mouse HRP (Sigma-Aldrich, St Louis, Mo.) for detection.\nHuman platelets were incubated with sensitizing antibody, NHS, or both. […] Complement attack of the platelets and cell viability were assayed. C3 is the central component of the complement activation cascades. The C3 fragment iC3b is an opsonin that contributes to phagocytosis. […]"}, "[4]": {"details": "water, without PEGylation or DMSO", "description": "Sarcosine variants and PEG were dissolved in water and the pH was adjusted with NaOH. PA was dissolved in DMSO and then brought up to the final concentration with water resulting in 30% DMSO and pH adjusted. Antibody sensitized sheep erythrocytes (EA), purified C1q and factor B-depleted human sera were purchased from Complement Technology (Tyler, Tex.). Purified myeloperoxidase was purchased from Lee BioSolutions (Maryland Heights, Mo.) and tetramethylbenzidine (TMB) and PicoGreen were purchased from Thermo Fisher (Waltham Mass.).\n(PA), peptide derivatives were synthesized with sarcosine residues substituted at all 15 positions. Also included is a peptide in which the vicinal cysteines at positions 9 and 10 (C9,C10) were replaced with a single sarcosine residue."}, "complement activation": {"tested_on": "complement activation", "details": "administered intravascularly into rats, by 30 seconds; cited from earlier work"}, "human platelets": {"tested_on": "human platelets", "assay": "viability of antibody-sensitized human platelets in normal human serum (Presto Blue)", "format": "cell-based", "description": "For in vitro experiments, platelets were stained with PrestoBlue Cell Viability Reagent as per manufacturer's recommendations. For in vivo experiments, platelets were stained with PKH26 Red Fluorescent Cell Dye as per manufacturer's recommendations.\nas §1\nCell viability of the platelets was measured by utilizing the vital dye, Presto Blue. […] These effects can be largely reversed in the presence of a classical complement pathway inhibitor."}}, "note": "Entries after “also recorded” stand apart in the source; their conditions may differ."}
{"substance": "H2N-IALILEPICCQERAA-dPEG24 (H-IALILEPICCQERAA-dPEG24; cysteine pairing not given here) [PA-dPEG24, 15-amino acid PEGylated peptide, 24 PEG moieties at the C-terminus]", "values": [{"measurement": "increase in transfused platelets compared with control", "setting": "[1]; 160 mg/kg infused 30 seconds before transfusion, 0.5 minutes after transfusion, P=0.05, FIG. 12A", "result": 2, "unit": "fold"}, {"measurement": "stained transfused platelets, representative flow cytometry", "setting": "[1]; 160 mg/kg, 0.5 minutes after transfusion, vs vehicle, FIG. 11", "result": "increased numbers of stained transfused platelets"}, {"measurement": "amount of transfused platelets compared with control", "setting": "[1]; 160 mg/kg, later time points than 0.5 minutes", "result": "no significant difference in the amount of transfused platelets"}, {"measurement": "decrease in total platelet count relative to 30 seconds after transfusion", "setting": "[1]; unstained platelets, two minutes (P=0.04) and 20 minutes (P=0.03), FIG. 12B", "result": "Statistically significant greater decreases in the platelet count were found for saline-treated versus PA-dPEG24-treated animals"}, {"measurement": "viability of human platelets in rat sera", "setting": "[2]", "result": "dose-dependent improvement in platelet viability; also recorded: improved survival for human platelets in rat sera for all doses tested compared to control"}, {"measurement": "iC3b bound to platelets", "setting": "[3]; 0.8 mM", "result": "level similar to that of the background level measured for sensitizing antibody alone"}, {"measurement": "iC3b opsonization of platelets, dose response", "setting": "[3]; sensitizing antibody and NHS, increasing concentrations, FIG. 6A", "result": "decreased iC3b opsonization of the platelets in a dose-dependent manner"}, {"measurement": "H2O Soluble", "setting": "[4]", "result": "No"}, {"measurement": "systemic inhibition of complement activation", "setting": "complement activation", "result": "> 90", "unit": "%"}, {"measurement": "increase in platelet viability, in words", "setting": "human platelets; 1.5 mM, P=0.031", "result": "Significant increases in platelet viability"}, {"measurement": "increase in platelet viability", "setting": "human platelets; 3.0 mM, P=0.003", "result": 53, "unit": "%"}, {"measurement": "platelet viability, dose response", "setting": "human platelets; sensitizing antibody and NHS, increasing concentrations, FIG. 6C", "result": "Platelet viability dose-dependently increased"}]}
